Measured values reported in patent publication US6355799B1, “Substituted benzene compounds, process for their preparation, and herbicidal and defoliant compositions containing them” (ISK Americas Incorporated, priority 1997, dated 2002).

Columns and labels:
Format in all cases: in vivo
[1] = tested on: redroot pigweed (Amaranthus retroflexus, AMARE); assay: Pre-emerge test, greenhouse herbicide activity screening; settings: phytotoxicity rating 0-100, 14 days after application
Outline: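 Rating: 0–100 visual injury, 14 DAA. Application: acetone, 187 l/ha, 15–1000 g ai/ha, flat-fan track sprayer with nozzle 40–45 cm above soil or canopy. Post-emerge runs used 0.25% v/v surfactant on 2–3 leaf plants.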

[2] = tested on: large crabgrass (Digitaria sanguinalis, DIGSA); assay: as above; settings: phytotoxicity rating 0-100, 14 days after application
Outline: (§1)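 Herbicidal damage is scored 0 (none) to 100 (complete plant death) two weeks after a simulated field spray. Rates span 15–1000 g ai/ha, delivered in acetone at 187 l/ha. For post-emergence treatments, plants have 2–3 leaves and the spray carries 0.25% v/v non-ionic surfactant.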

[3] = tested on: ivyleaf morningglory (Ipomoea hederacea, IPOHE); assay: as above; settings: phytotoxicity rating 0-100, 14 days after application
Outline: as §1

[4] = tested on: johnsongrass (Sorghum halepense, SORHA); assay: as above; settings: phytotoxicity rating 0-100, 14 days after application
Outline: as §1

[5] = tested on: sicklepod (Cassia obtusifolia, CASOB); assay: as above; settings: phytotoxicity rating 0-100, 14 days after application
Outline: as §1

[6] = tested on: green foxtail (Setaria viridis, SETVI); assay: as above; settings: phytotoxicity rating 0-100, 14 days after application
Outline: as §1

[7] = tested on: barnyardgrass (Echinochloa crus-galli, ECHCG); assay: as above; settings: phytotoxicity rating 0-100, 14 days after application
Outline: as §1

[8] = tested on: lambsquarters (Chenopodium album, CHEAL); assay: as above; settings: phytotoxicity rating 0-100, 14 days after application
Outline: as §1

[9] = tested on: velvetleaf (Abutilon theophrasti, ABUTH); assay: as above; settings: phytotoxicity rating 0-100, 14 days after application
Outline: as §1

[10] = tested on: redroot pigweed (Amaranthus retroflexus, AMARE); assay: Post-emerge test, greenhouse herbicide activity screening; settings: post-emerge, 14 days after application
Outline: (§2)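 Compounds in acetone were track-sprayed at 15–1000 g ai/ha: pre-emergence onto soil sown the previous day, then top-watered to incorporate and later bottom-watered; post-emergence onto 2–3 leaf plants with 0.25% v/v surfactant, bottom-watered only. Ratings on a 0–100 phytotoxicity scale were taken at day 14.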

[11] = tested on: large crabgrass (Digitaria sanguinalis, DIGSA); assay: as above; settings: post-emerge, 14 days after application, rating scale 0-100
Outline: as §2

[12] = tested on: ivyleaf morningglory (Ipomoea hederacea, IPOHE); assay: as above; settings: post-emerge, 14 days after application, rating scale 0-100
Outline: as §2

[13] = tested on: sicklepod (Cassia obtusifolia, CASOB); assay: as above; settings: post-emerge, 14 days after application, rating scale 0-100
Outline: as §2

[14] = tested on: green foxtail (Setaria viridis, SETVI); assay: as above; settings: post-emerge, 14 days after application, rating scale 0-100
Outline: as §2

[15] = tested on: barnyardgrass (Echinochloa crus-galli, ECHCG); assay: as above; settings: post-emerge, 14 days after application, rating scale 0-100
Outline: as §2

[16] = tested on: lambsquarters (Chenopodium album, CHEAL); assay: as above; settings: post-emerge, 14 days after application, rating scale 0-100
Outline: as §2

[17] = tested on: velvetleaf (Abutilon theophrasti, ABUTH); assay: as above; settings: post-emerge, 14 days after application, rating scale 0-100
Outline: as §2

[18] = tested on: field corn (Zea mays L., var. Dekalb 535, CORN); assay: Pre-emerge test, crop safety; settings: crop damage rating 0-100, 14 days after application
Outline: (§3)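 Applied at 15–1000 g ai/ha from acetone in 187 l/ha spray volume. Post-emergence applications included 0.25% v/v non-ionic surfactant and reached plants sown 8–21 days before. Pre-emergence applications were incorporated by surface watering. Efficacy or crop damage was rated on a 0–100 scale after 14 days.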

[19] = tested on: upland rice (Oryza sp., var. Tebonnet, RICE); assay: Pre-emerge test, crop safety; settings: crop damage rating 0-100, 14 days after application
Outline: as §3

[20] = tested on: field corn (Zea mays L., var. Dekalb 535, CORN); assay: Post-emerge test, crop safety; settings: post-emerge, 14 days after application, rating scale 0-100
Outline: as §1

[21] = tested on: upland rice (Oryza sp., var. Tebonnet, RICE); assay: Post-emerge test, crop safety; settings: post-emerge, 14 days after application, rating scale 0-100
Outline: as §1

COc1c(Cl)cc(F)c(-n2c(=O)cc(C(F)(F)F)n(C)c2=O)c1NC(=O)OC(c1ccccc1)C1CC1 (stereo not drawn) [4-46]
30: Pre-emerge Herbicidal Activity CASOB ([5]; 63 g ai/ha) | phytotoxicity rating ECHCG ([15]; 250 g ai/ha)
100: Pre-emerge Herbicidal Activity AMARE ([1]; 250 g ai/ha) | Pre-emerge Herbicidal Activity SETVI ([6]; 250 g ai/ha) | Pre-emerge Herbicidal Activity CHEAL ([8]; 63 g ai/ha) | Pre-emerge Herbicidal Activity CHEAL ([8]; 250 g ai/ha) | Pre-emerge Herbicidal Activity ABUTH ([9]; 250 g ai/ha) | phytotoxicity rating AMARE ([10]; 63 g ai/ha, rating scale 0-100 (0 no damage, 100 complete death)) | phytotoxicity rating AMARE ([10]; 250 g ai/ha, rating scale 0-100) | phytotoxicity rating IPOHE ([12]; 63 g ai/ha) | phytotoxicity rating CHEAL ([16]; 250 g ai/ha)
50: Pre-emerge Herbicidal Activity ABUTH ([9]; 63 g ai/ha) | Pre-emerge Herbicidal Activity RICE ([19]; 250 g ai/ha)
70: Pre-emerge Herbicidal Activity DIGSA ([2]; 63 g ai/ha) | phytotoxicity rating RICE (crop damage) ([21]; 250 g ai/ha)
85: Pre-emerge Herbicidal Activity IPOHE ([3]; 250 g ai/ha)
90: phytotoxicity rating IPOHE ([12]; 250 g ai/ha) | phytotoxicity rating CHEAL ([16]; 63 g ai/ha) | phytotoxicity rating ABUTH ([17]; 250 g ai/ha)
0: phytotoxicity rating DIGSA ([11]; 63 g ai/ha) | Pre-emerge Herbicidal Activity CORN ([18]; 63 g ai/ha)
80: Pre-emerge Herbicidal Activity AMARE ([1]; 63 g ai/ha) | phytotoxicity rating CASOB ([13]; 63 g ai/ha) | phytotoxicity rating CORN (crop damage) ([20]; 250 g ai/ha)
10: Pre-emerge Herbicidal Activity IPOHE ([3]; 63 g ai/ha) | phytotoxicity rating SETVI ([14]; 63 g ai/ha) | phytotoxicity rating SETVI ([14]; 250 g ai/ha) | Pre-emerge Herbicidal Activity RICE ([19]; 63 g ai/ha) | phytotoxicity rating CORN (crop damage) ([20]; 63 g ai/ha) | phytotoxicity rating RICE (crop damage) ([21]; 63 g ai/ha)
5: Pre-emerge Herbicidal Activity CORN ([18]; 250 g ai/ha)
20: Pre-emerge Herbicidal Activity SORHA ([4]; 63 g ai/ha) | Pre-emerge Herbicidal Activity ECHCG ([7]; 63 g ai/ha) | phytotoxicity rating DIGSA ([11]; 250 g ai/ha) | phytotoxicity rating ECHCG ([15]; 63 g ai/ha)
60: Pre-emerge Herbicidal Activity SORHA ([4]; 250 g ai/ha) | Pre-emerge Herbicidal Activity ECHCG ([7]; 250 g ai/ha)
40: Pre-emerge Herbicidal Activity CASOB ([5]; 250 g ai/ha) | Pre-emerge Herbicidal Activity SETVI ([6]; 63 g ai/ha)
95: Pre-emerge Herbicidal Activity DIGSA ([2]; 250 g ai/ha) | phytotoxicity rating CASOB ([13]; 250 g ai/ha) | phytotoxicity rating ABUTH ([17]; 63 g ai/ha)
